In PubChem BioAssay (NCI) one finds TGI and GI50 data, which are given here for six molecules.

Test systems include HOP-62 NSCLC; COLO 205 colon; OVCAR-3 ovarian; SN12C renal; HOP-92 NSCLC; ACHN renal; NCI-H23 lung; T-47D breast; HL-60(TB) leukemia; SK-MEL-28 melanoma.
What all share (assay): growth of human tumour cells (NCI), 48 h

Structures are written as SMILES.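 A five-concentration, 48-hour dose response in 96-well plates underlies each endpoint, interpolated linearly between surrounding concentrations. The concentration for 50% growth inhibition is given as GI50. TGI: total growth inhibition.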

On to `CC(=O)O[C@H]1CC[C@@]2(C)C(=CC[C@H]3[C@@H]4C[C@H](N5CCOCC5)[C@H](OC(C)=O)[C@@]4(C)CC[C@@H]32)C1`, for which the TGI in the test on HOP-62 NSCLC, in the test on COLO 205 colon, in the test on OVCAR-3 ovarian, in the test with SN12C renal, in the test with HOP-92 NSCLC and in the test on ACHN renal was over 100 µM each time. In addition, the TGI in the test with NCI-H23 lung, with T-47D breast, in the test on HL-60(TB) leukemia and in the test with SK-MEL-28 melanoma was over 100 µM in each case.

Regarding `CCOC(=O)NC(Nc1cccc(C(F)(F)F)c1)(C(F)(F)F)C(F)(F)F`, the TGI in the test on HOP-62 NSCLC, in the test with COLO 205 colon, in the test with OVCAR-3 ovarian, in the test on SN12C renal, in the test on HOP-92 NSCLC and in the test with ACHN renal was over 100 µM throughout. The TGI in the test on NCI-H23 lung, with T-47D breast, in the test on HL-60(TB) leukemia and in the test with SK-MEL-28 melanoma was over 100 µM throughout.

As to `COc1ccc2c(c1)CCN1CCc3ccccc3CC21` (stereo not given), the TGI in the test on HOP-62 NSCLC was over 100 µM; with COLO 205 colon, 46.1 µM; with OVCAR-3 ovarian, over 100 µM; in the test with SN12C renal it was over 100 µM; with HOP-92 NSCLC, 68.3 µM; with ACHN renal, over 100 µM. Further, the TGI is over 100 µM with NCI-H23 lung, over 100 µM in the test with T-47D breast, 68 µM in the test on HL-60(TB) leukemia and 98.5 µM in the test with SK-MEL-28 melanoma.

With `CC(C)=CCNc1ncnc2c1ncn2CCC#N`, the TGI with HOP-62 NSCLC, in the test with COLO 205 colon, in the test on OVCAR-3 ovarian, with SN12C renal, with HOP-92 NSCLC and in the test on ACHN renal was over 100 µM throughout. For the same molecule, the TGI with NCI-H23 lung, in the test with T-47D breast, with HL-60(TB) leukemia and with SK-MEL-28 melanoma was over 100 µM each time.

For the molecule `COc1ccc(-c2nn(-c3ccc(NC(=O)Nc4cc(C(F)(F)F)cc(C(F)(F)F)c4)cc3)cc2-c2ccncc2)cc1Cl`, the GI50 in the test with HOP-62 NSCLC was 3.68 µM; in the test with COLO 205 colon, 2.06 µM; with OVCAR-3 ovarian, 2.32 µM; with SN12C renal it was 3.13 µM; in the test on HOP-92 NSCLC, 1.06 µM; in the test with ACHN renal, 2.75 µM. Besides, the GI50 was 2.78 µM in the test with NCI-H23 lung, 4.1 µM in the test on T-47D breast, 2.5 µM in the test with HL-60(TB) leukemia and 2.22 µM in the test with SK-MEL-28 melanoma. In addition, the TGI with HOP-62 NSCLC amounted to 15.1 µM; with COLO 205 colon, 4.17 µM; in the test with OVCAR-3 ovarian, 8.85 µM; with SN12C renal, 16.6 µM; in the test on HOP-92 NSCLC, 4.35 µM; in the test with ACHN renal it was 58.5 µM. Further, the TGI in the test on NCI-H23 lung was over 100 µM; with T-47D breast it was 83.3 µM; in the test with HL-60(TB) leukemia it was 6.58 µM; with SK-MEL-28 melanoma, 6.18 µM.

Turning to `O=c1oc2ccc([N+](=O)[O-])cc2c(Nc2ccc3c(c2)Oc2ccccc2O3)c1[N+](=O)[O-]`, the TGI with HOP-62 NSCLC is over 100 µM; in the test with COLO 205 colon, 40.2 µM; with OVCAR-3 ovarian, over 100 µM; with SN12C renal it was over 100 µM; in the test on HOP-92 NSCLC, 54.1 µM; with ACHN renal, over 100 µM. In addition, the TGI in the test on NCI-H23 lung was 62.3 µM; in the test on T-47D breast, over 100 µM; in the test on HL-60(TB) leukemia it was 40.2 µM; in the test with SK-MEL-28 melanoma, over 100 µM.
